Test results reported in patent publication US9593305B2, “Differentiation of pluripotent stem cells” (Janssen Biotech, Inc., priority 2008, dated 2017).

Key:
[1] = test system: H1 human embryonic stem cells; test: Secondary assay: panel of compounds with growth factor combinations and muscimol, no activin A (Example 6, Table 5); type: cell-based
Procedure: Clusters of H1 human embryonic stem cells were grown on reduced growth factor […]™ (Invitrogen; Cat #356231)-coated tissue culture plastic. Cells were passaged using collagenase (Invitrogen; Cat #17104-019) treatment and gentle scraping, washed to remove residual enzyme, and plated with even dispersal at a ratio of 1:1 (surface area) on reduced growth factor […]™-coated 96-well black plates (Packard ViewPlates; PerkinElmer; Cat #6005182) using volumes of 100 μl/well. Cells were allowed to attach as clusters and then recover log phase growth over a 1 to 3 day period, feeding daily with MEF-conditioned medium supplemented with 8 ng/ml bFGF (R&D Systems; Cat #233-FB). Plates were maintained at 37° C., 5% CO2 in a humidified box throughout the duration of the assay. Stocks of growth factors purchased from R&D Systems were EGF (Cat #236-EG), FGF4 (Cat #235-F4), PDGF-A (Cat #221-AA), PDGF-D (Cat #1159-SB), PDGF-A/B (Cat #222-AB), and VEGF (Cat #293-VE). […] All growth factors were solubilized in PBS with 0.1% BSA (Sigma; Cat #A7888) and stored frozen at −80° C. […] Cat #D2650) and stored frozen at −80° C. Compounds were available as 5 mM stocks in 96-well plate format, solubilized in 100% DMSO and stored at −80° C. Compounds were further diluted to an intermediate concentration of 0.2 mM in 50 mM HEPES (Invitrogen; Cat #15630-080), 20% DMSO and stored at 4° C. All growth factors and inhibitors were prepared in a deep well, 96-well polypropylene plate, diluted to 5× intermediate stocks in DMEM:F12 base medium at the beginning of assay and stored at 4° C. A secondary screening assay was conducted, testing in triplicate and feeding on alternate days over the four-day assay timeframe. Assays were initiated by aspirating culture medium from each well followed by three washes in PBS to remove residual growth factors and serum. Test volumes of 80 μl per well were added back containing DMEM:F12 base medium (Invitrogen; Cat #11330-032) supplemented with 0.625% FCS (HyClone; […] All remaining growth factors were tested at a final assay concentration of 50 ng/ml (EGF, FGF4, PDGF-A, PDGF-A/B, VEGF). […] At the conclusion of four-days of culture, assay plates were washed twice with PBS, fixed with 4% paraformaldehyde (Alexis Biochemical; Cat #ALX-350-011) at room temperature for 20 minutes, then washed three times with PBS and permeabilized with 0.5% Triton X-100 (Sigma; Cat #T8760-2) for 20 minutes at room temperature. Cells were washed again three times with PBS and blocked with 4% chicken serum (Invitrogen; Cat #16110082) in PBS for 30 minutes at room temperature. Primary antibody (goat anti-human SOX17; R&D Systems; cat #AF1924) was diluted 1:100 in 4% chicken serum and added to each well for one hour at room temperature. Alexa Fluor 488 conjugated secondary antibody (chicken anti-goat IgG; Molecular Probes; Cat #AZ1467) was diluted 1:200 in PBS and added to each sample well after washing three times with PBS. To counterstain nuclei, 4 μg/ml Hoechst 33342 (Invitrogen; Cat #H3570) was added for ten minutes at room temperature. Plates were washed once with PBS and left in 100 μl/well PBS for imaging. Imaging was performed using an IN Cell Analyzer 1000 (GE Healthcare) utilizing the 51008bs dichroic for cells stained with Hoechst 33342 and Alexa Fluor 488. Exposure times were optimized from positive control wells and from untreated negative control wells stained with secondary antibody alone. Images from 15 fields per well were acquired to compensate for any cell loss during the bioassay and subsequent staining procedures. […] Segmentation for the nuclei was determined based on grayscale levels (baseline range 100-300) and nuclear size. Averages and standard deviations were calculated for each replicate data set. Total SOX17 protein expression was reported as total intensity or integrated intensity, defined as total fluorescence of the cell multiplied by the area of the cell. […]

[2] = test system: H1 human embryonic stem cells; test: Analog screening with GDF-8 and growth factor/agonist pool (Example 8, Tables 7 and 8); type: cell-based; set-up: Cell Number, % of positive control / Sox17 Expression, % of positive control: tested at 2.5 µM
Procedure: Briefly, clusters of H1 human embryonic stem cells were grown on reduced growth factor […]™ (Invitrogen; Cat #356231)-coated tissue culture plastic. Cells were passaged using collagenase (Invitrogen; Cat #17104-019) treatment and gentle scraping, washed to remove residual enzyme, and plated with even dispersal at a ratio of 1:1 (surface area) on reduced growth factor […]™-coated 96-well black plates (Packard ViewPlates; PerkinElmer; Cat #6005182) using volumes of 100 μl/well. Cells were allowed to attach as clusters and then recover log phase growth over a 1 to 3 day period, feeding daily with MEF conditioned medium supplemented with 8 ng/ml bFGF (R&D Systems; Cat #233-FB). Plates were maintained at 37° C., 5% CO2 in a humidified box throughout the duration of assay. Growth factors purchased from R&D Systems were EGF (Cat #236-EG), FGF4 (Cat #235-F4), PDGF-A (Cat #221-AA), PDGF-D (Cat #1159-SB), PDGF-A/B (Cat #222-AB). […] Screening was conducted using a library of compounds that were made available as 5 mM stocks in 96-well plate format, solubilized in 100% DMSO (Sigma; Cat #D2650) and stored at −80° C. The compounds were further diluted to an intermediate concentration of 0.2 mM in 50 mM HEPES (Invitrogen; Cat #15630-080), 20% DMSO and stored at 4° C. Test conditions were performed in single wells, feeding on alternate days over a four-day assay period. Primary screening assays were initiated by aspirating culture medium from each well followed by three washes in PBS (Invitrogen; Cat #14190) to remove residual growth factors and serum. On the first day of assay, test volumes of 200 μl per well were added back containing DMEM:F12 base medium (Invitrogen; Cat #11330-032) supplemented with 0.5% FCS (HyClone; […] Cat #1324-WN) plus 2.5 μM compound. All remaining growth factors were tested at a final assay concentration of 50 ng/ml (EGF, FGF4, PDGF-A, PDGF-A/B, VEGF) with the exception of GDF-8 tested at 25 ng/ml. […] Cat #120-14). […] All remaining growth factors were tested at a final assay concentration of 50 ng/ml (EGF, FGF4, PDGF-A, PDGF-A/B, VEGF) with the exception of GDF-8 tested at 25 ng/ml. […] Cat #120-14). Negative control samples contained DMEM:F12 base medium supplemented with 2% FCS. […] At the conclusion of four-days of culture, assay plates were washed twice with PBS (Invitrogen; Cat #14190), fixed with 4% paraformaldehyde (Alexis Biochemical; Cat #ALX-350-011) at room temperature for 20 minutes, then washed three times with PBS and permeabilized with 0.5% Triton X-100 (Sigma; Cat #T8760-2) for 20 minutes at room temperature. Cells were washed again three times with PBS and blocked with 4% chicken serum (Invitrogen; Cat #16110082) in PBS for 30 minutes at room temperature. Primary antibody (goat anti-human SOX17; R&D Systems; Cat #AF1924) was diluted 1:100 in 4% chicken serum and added to each well for one hour at room temperature. Alexa Fluor 488 conjugated secondary antibody (chicken anti-goat IgG; Molecular Probes; Cat #AZ1467) was diluted 1:200 in PBS and added to each sample well after washing three times with PBS. To counterstain nuclei, 4 μg/ml Hoechst 33342 (Invitrogen; Cat #H3570) was added for ten minutes at room temperature. Plates were washed once with PBS and left in 100 μl/well PBS for imaging. Imaging was performed using an IN Cell Analyzer 1000 (GE Healthcare) utilizing the 51008bs dichroic for cells stained with Hoechst 33342 and Alexa Fluor 488. Exposure times were optimized from positive control wells and from untreated negative control wells stained with secondary antibody alone. Images from 15 fields per well were acquired to compensate for any cell loss during the bioassay and subsequent staining procedures. […] Segmentation for the nuclei was determined based on gray-scale levels (baseline range 100-300) and nuclear size. Averages and standard deviations were calculated for each replicate data set. […]

[3] = EGF, FGF, PDGF-A, VEGF, PDGF-D, muscimol, GDF8
[4] = Plate 2, compound + EGF, FGF, PDGF-A, VEGF, PDGF-D, muscimol, GDF8
[5] = Plate 2, compound + EGF, FGF, PDGF-A, VEGF, PDGF-D, muscimol, GDF8, positive control Activin A/Wnt3a
[6] = Plate 1, compound + EGF, FGF, PDGF-A, VEGF, PDGF-D, muscimol, GDF8
[7] = Plate 1, compound + EGF, FGF, PDGF-A, VEGF, PDGF-D, muscimol, GDF8, positive control Activin A/Wnt3a
[8] = Table 8: hits with greater than 25% activity of the positive control, with GDF-8 and growth factors/agonists

Row | Compound | Cell Number, Average Total Cell Number [2, 4] | Sox17 Expression, Average Total Intensity [2, 4] | Cell Number, % of positive control [2, 5] | Sox17 Expression, % of positive control [2, 5] | Cell Number, % of positive control [2, 8] | Sox17 Expression, % of positive control [2, 8] | Sox17 Expression, Average Total Intensity [2, 8] | further results
1 | 9-Methyl-2,3,4,5,7,8,9,10-octahydro-16H-17,21-(azeno)-11,15-(metheno)pyrido[3,2-g][1,3,5,9,13,17]hexaazacyclotricosin-6(1H)-one [Compound 39] | – | – | – | – | – | – | – | SOX17 expression, % of positive control response ([1]; with EGF+FGF4+PDGF-A+VEGF, no activin A): 31 % of positive control response; SOX17 expression, % of positive control response ([1]; with EGF+FGF4+PDGF-AB, no activin A): 68 % of positive control response; SOX17 expression, % of positive control response ([1]; with EGF+FGF4, no activin A): 77 % of positive control response
2 | CCN1CC(=O)NCCCc2cccc(c2)-c2ncnc(n2)Nc2cc(Cl)cc(c2)C1 [Compound 16, 10-Chloro-14-ethyl-3,5,7,14,17,27-hexaazatetracyclo[19.3.1.1˜2,6˜1˜8,12˜]heptacosa-1(25), 2(27), 3,5,8(26), 9,11,21,23-nonaen-16-one] | 9064 | 1.48E+08 | 57.3 % of positive control | 51.8 % of positive control | – | – | – | Cell Number, % of positive control [2, 3]: 62.0%; Cell Number, Average Total Cell Number [2, 3]: 8303; Sox17 Expression, % of positive control [2, 3]: 36.7%; Sox17 Expression, Average Total Intensity [2, 3]: 9.20E+07
3 | O=C1NCCCc2cncc(c2)-c2ncnc(n2)Nc2cc(Cl)cc(c2)CN2CCC[C@@H]12 [Compound 36, (18S)-10-Chloro-3,5,7,14,20,26,30-heptaazapentacyclo[22.3.1.1˜2,6˜0.1˜8,12˜0.0˜14,18˜]triaconta-1(28), 2(30), 3,5,8(29), 9,11,24,26-nonaen-19-one] | – | – | – | – | 59.5 % of positive control | 37.8 % of positive control | 9.47E+07 | Cell Number, Average Total Cell Number [2, 6]: 7964; Sox17 Expression, Average Total Intensity [2, 6]: 9.47E+07; Cell Number, % of positive control [2, 7]: 59.5 % of positive control; Sox17 Expression, % of positive control [2, 7]: 37.8 % of positive control
4 | O=C1NCCCc2cncc(c2)-c2ncnc(n2)Nc2cc(Cl)cc(c2)CN2CCCC1C2 (stereo not shown) [Compound 38, 5-Chloro-1,8,10,12,16,22,30-heptaazapentacyclo[22.2.2.1˜3,7˜0.1˜9,13˜0.1˜14,18˜]hentriaconta-3(31), 4,6,9(30), 10,12,14(29), 15,17-nonaen-23-one] | 9650 | 2.46E+08 | 61.0 % of positive control | 86.2 % of positive control | 61.0 % of positive control | 86.2 % of positive control | 2.46E+08 | –
